Measurements as given in patent US10363239B2, “Method for inhibiting growth of cancer cells” (Pain Therapeutics, Inc., priority 2013, dated 2019).
Read-outs that look alike come from different tables or passages of the source.

What was measured:
[1] = molecular target: FLNA pentapeptide of SEQ ID NO: 1 (Bn-VAKGL) (Homo sapiens, UniProt P21333); test: FITC-NLX-based FLNA screening assay (inhibition of FITC-naloxone binding to Bn-VAKGL on streptavidin plates); details: 10 nM FITC-NLX
mu opiate receptor (MOR) = test: MOR agonist activity using [35S]GTPγS binding assay in striatal membranes; type: biochemical; details: for MOR agonist activity ([35S]GTPγS binding), FLNA-Binding Compound as Agonist 1 μM + BFNA: 1 μM compound + 1 μM β-funaltrexamine; for Concentration of FLNA-Binding Compound as Agonist 0.1 μM / Concentration of FLNA-Binding Compound as Agonist 1 μM: [35S]GTPγS binding to Gαo, striatal membranes; for Concentration of FLNA-Binding Compound as Agonist 1 μM + BFNA: 1 μM compound + 1 μM β-FNA
How it was run: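 Striatal membranes (200 μg) were preincubated 5 min at 30 °C in HEPES pH 7.5 with 100 mM NaCl, 1 mM MgCl2 and 0.5 nM [35S]GTPγS, then 5 min more with 0.1–10 μM compound. Gαo was immunoprecipitated and bound radioactivity counted by scintillation.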

[2] = FLNA-binding compound 0.01 μM, read-out: Percent Binding Inhibition
[3] = FLNA-binding compound 0.1 μM, read-out: Percent Binding Inhibition
[4] = FLNA-binding compound 1 μM, read-out: Percent Binding Inhibition
[5] = 0.1 μM compound relative to DAMGO
[6] = 1 μM compound + BFNA relative to DAMGO + BFNA
[7] = 1 μM compound relative to DAMGO
[8] = read-out: Percent Binding Inhibition, FLNA-binding compound 0.01 μM
[9] = read-out: Percent Binding Inhibition, FLNA-binding compound 0.1 μM
[10] = read-out: Percent Binding Inhibition, FLNA-binding compound 1 μM
[11] = Series C-1, 0.1 μM compound, relative to DAMGO
[12] = Series C-1, 1 μM compound + β-FNA, relative to DAMGO + BFNA
[13] = Series C-1, 1 μM compound, relative to DAMGO

For `CC1CN(CC(O)COc2ccc(Cl)cc2)CC(C)O1` (stereo not drawn) [Compound A0047], the inhibition at 0.01 µM [1, 2] was 40.9%, the inhibition at 0.1 µM [1, 3] was 42.9% and the inhibition at 1 µM [1, 4] was 44.5%. For the same compound, the “MOR agonist activity ([35S]GTPγS binding), FLNA-Binding Compound as Agonist 0.1 μM” value (“MOR agonist activity … as Agonist 0.1 μM” for short) (mu opiate receptor (MOR); 0.1 μM compound) was 233.0%, the “% DAMGO (0.1 μM)” value (mu opiate receptor (MOR); [5]) was 118.8% and the “MOR agonist activity ([35S]GTPγS binding), FLNA-Binding Compound as Agonist 1 μM” value (mu opiate receptor (MOR); 1 μM compound) was 255.0%. For the same compound, the “MOR agonist activity ([35S]GTPγS binding), FLNA-Binding Compound as Agonist 1 μM + BFNA” value (“MOR agonist activity … as Agonist 1 μM + BFNA” for short) (mu opiate receptor (MOR)) was 116.5%, the “% DAMGO + BFNA” value (mu opiate receptor (MOR); [6]) was 157.6% and the “% DAMGO (1 μM)” value (mu opiate receptor (MOR); [7]) was 92.4%.

`COc1cccc(S(=O)(=O)N2CCC3(CC2)OCCN3S(=O)(=O)c2cccc(OC)c2)c1` [Compound C0002] showed an inhibition at 0.01 µM [1, 8] of 38.4%, an inhibition at 0.1 µM [1, 9] of 45.6% and an inhibition at 1 µM [1, 10] of 42.8%. The “% DAMGO (0.1 μM)” value (mu opiate receptor (MOR); [11]) was 51.4%, the “Concentration of FLNA-Binding Compound as Agonist 0.1 μM” value (from here on “Concentration … as Agonist 0.1 μM”) (mu opiate receptor (MOR); Series C-1, 0.1 μM compound) was 88.4% and the “Concentration of FLNA-Binding Compound as Agonist 1 μM + BFNA” value (“Concentration … as Agonist 1 μM + BFNA” below) (mu opiate receptor (MOR); Series C-1) was 3.9%. For the same compound, the “% DAMGO + BFNA” value (mu opiate receptor (MOR); [12]) was 6.1%, the “% DAMGO (1 μM)” value (mu opiate receptor (MOR); [13]) was 33.9% and the “Concentration of FLNA-Binding Compound as Agonist 1 μM” value (mu opiate receptor (MOR); Series C-1, 1 μM compound) was 93.8%.

Compound `O=S(=O)(c1ccc(F)c(F)c1)N1CCC2(CC1)OCCN2S(=O)(=O)c1ccc(F)c(F)c1` [Compound C0072] has an inhibition at 0.01 µM [1, 2] of 28.4%, an inhibition at 0.1 µM [1, 3] of 37.4% and an inhibition at 1 µM [1, 4] of 44%. For the same compound, the “% DAMGO (0.1 μM)” value (mu opiate receptor (MOR); [11]) was 100.3%, the “Concentration … as Agonist 0.1 μM” value (mu opiate receptor (MOR); Series C-1, 0.1 μM compound) was 172.7% and the “Concentration … as Agonist 1 μM + BFNA” value (mu opiate receptor (MOR); Series C-1) was 67.1%. For the same compound, the “% DAMGO + BFNA” value (mu opiate receptor (MOR); [12]) was 194.5%, the “% DAMGO (1 μM)” value (mu opiate receptor (MOR); [13]) was 117.9% and the “Concentration of FLNA-Binding Compound as Agonist 1 μM” value (mu opiate receptor (MOR); Series C-1, 1 μM compound) was 259.1%.

With `OC(COc1ccc(Br)c(F)c1)CN1CCc2ccccc2C1` (stereo not drawn) [Compound A0057] the inhibition at 0.01 µM [1, 2] was 29.1%, the inhibition at 0.1 µM [1, 3] was 37% and the inhibition at 1 µM [1, 4] was 43.4%. For the same compound, the “MOR agonist activity … as Agonist 0.1 μM” value (mu opiate receptor (MOR); 0.1 μM compound) was 124.2%, the “% DAMGO (0.1 μM)” value (mu opiate receptor (MOR); [5]) was 79.6% and the “MOR agonist activity ([35S]GTPγS binding), FLNA-Binding Compound as Agonist 1 μM” value (mu opiate receptor (MOR); 1 μM compound) was 192.1%. For the same compound, the “MOR agonist activity … as Agonist 1 μM + BFNA” value (mu opiate receptor (MOR)) was 44.8%, the “% DAMGO + BFNA” value (mu opiate receptor (MOR); [6]) was 112.3% and the “% DAMGO (1 μM)” value (mu opiate receptor (MOR); [7]) was 83.3%.

`O=S(=O)(c1ccccc1)N1CCC2(CC1)OCCN2S(=O)(=O)c1ccccc1` [Compound C0016] gave an inhibition at 0.01 µM [1, 8] of 38.3%, an inhibition at 0.1 µM [1, 9] of 43.8% and an inhibition at 1 µM [1, 10] of 49.1%. The “% DAMGO (0.1 μM)” value (mu opiate receptor (MOR); [11]) was 100.4%, the “Concentration … as Agonist 0.1 μM” value (mu opiate receptor (MOR); Series C-1, 0.1 μM compound) was 172.7% and the “Concentration … as Agonist 1 μM + BFNA” value (mu opiate receptor (MOR); Series C-1) was 96.7%. For the same compound, the “% DAMGO + BFNA” value (mu opiate receptor (MOR); [12]) was 150.9%, the “% DAMGO (1 μM)” value (mu opiate receptor (MOR); [13]) was 83.3% and the “Concentration of FLNA-Binding Compound as Agonist 1 μM” value (mu opiate receptor (MOR); Series C-1, 1 μM compound) was 230.5%.

In the case of `COc1ccc(S(=O)(=O)N2CCC3(CC2)OCCN3S(=O)(=O)c2ccc(OC)cc2)cc1` [Compound 7866], the inhibition at 0.01 µM [1, 2] is reported as 38.5%, the inhibition at 0.1 µM [1, 3] is reported as 47.9% and the inhibition at 1 µM [1, 4] is reported as 53.4%. For the same compound, the “% DAMGO (0.1 μM)” value (mu opiate receptor (MOR); [11]) was 79.3%, the “Concentration … as Agonist 0.1 μM” value (mu opiate receptor (MOR); Series C-1, 0.1 μM compound) was 152.3% and the “Concentration … as Agonist 1 μM + BFNA” value (mu opiate receptor (MOR); Series C-1) was 62.4%. The “% DAMGO + BFNA” value (mu opiate receptor (MOR); [12]) was 129.5%, the “% DAMGO (1 μM)” value (mu opiate receptor (MOR); [13]) was 94.8% and the “Concentration of FLNA-Binding Compound as Agonist 1 μM” value (mu opiate receptor (MOR); Series C-1, 1 μM compound) was 308.2%.

For `CC1CCC(C(C)C)C(OCC(O)Cn2cccc2)C1` (stereo not drawn) [Compound A0038], the inhibition at 0.01 µM [1, 8] was 46.4%, the inhibition at 0.1 µM [1, 9] was 52.3% and the inhibition at 1 µM [1, 10] was 56.6%. The “MOR agonist activity … as Agonist 0.1 μM” value (mu opiate receptor (MOR); 0.1 μM compound) was 176.7%, the “% DAMGO (0.1 μM)” value (mu opiate receptor (MOR); [5]) was 90.1% and the “MOR agonist activity ([35S]GTPγS binding), FLNA-Binding Compound as Agonist 1 μM” value (mu opiate receptor (MOR); 1 μM compound) was 234.5%. For the same compound, the “MOR agonist activity … as Agonist 1 μM + BFNA” value (mu opiate receptor (MOR)) was 107.0%, the “% DAMGO + BFNA” value (mu opiate receptor (MOR); [6]) was 144.8% and the “% DAMGO (1 μM)” value (mu opiate receptor (MOR); [7]) was 85.0%.

`CC(=O)c1ccc(S(=O)(=O)N2CCC3(CC2)OC(CN(C)C)CN3S(=O)(=O)c2ccc(C(C)=O)cc2)cc1` (stereo not drawn) [Compound C0065] was tested, and the inhibition at 0.01 µM [1, 8] was 37.1%, the inhibition at 0.1 µM [1, 9] was 44% and the inhibition at 1 µM [1, 10] was 47%. The “% DAMGO (0.1 μM)” value (mu opiate receptor (MOR); [11]) was 127.0%, the “Concentration … as Agonist 0.1 μM” value (mu opiate receptor (MOR); Series C-1, 0.1 μM compound) was 198.3% and the “Concentration … as Agonist 1 μM + BFNA” value (mu opiate receptor (MOR); Series C-1) was 47.7%. For the same compound, the “% DAMGO + BFNA” value (mu opiate receptor (MOR); [12]) was 119.5%, the “% DAMGO (1 μM)” value (mu opiate receptor (MOR); [13]) was 121.3% and the “Concentration of FLNA-Binding Compound as Agonist 1 μM” value (mu opiate receptor (MOR); Series C-1, 1 μM compound) was 279.5%.

For `O=S(=O)(c1ccc(Cl)cc1)N1CCC2(CC1)OCCN2S(=O)(=O)c1ccc(Cl)cc1` [Compound C0067], the inhibition at 0.01 µM [1, 2] was 31.3%, the inhibition at 0.1 µM [1, 3] was 39.7% and the inhibition at 1 µM [1, 4] was 45%. The “% DAMGO (0.1 μM)” value (mu opiate receptor (MOR); [11]) was 82.9%, the “Concentration … as Agonist 0.1 μM” value (mu opiate receptor (MOR); Series C-1, 0.1 μM compound) was 142.7% and the “Concentration … as Agonist 1 μM + BFNA” value (mu opiate receptor (MOR); Series C-1) was 33.5%. For the same compound, the “% DAMGO + BFNA” value (mu opiate receptor (MOR); [12]) was 97.1%, the “% DAMGO (1 μM)” value (mu opiate receptor (MOR); [13]) was 81.5% and the “Concentration of FLNA-Binding Compound as Agonist 1 μM” value (mu opiate receptor (MOR); Series C-1, 1 μM compound) was 179.0%.
